Experimental data reported in patent US20030073850A1, “4-Imidazole derivatives of benzyl and restricted benzyl sulfonamides, sulfamides, ureas, carbamates, and amides and their use” (priority 1998, published 2003).
Where two headings read alike, the source gives them in different places.

Legend:
[1] = molecular target: T1, α1b (hamster receptor expressed in mouse fibroblasts) (Mesocricetus auratus, UniProt P18841); assay: Radioligand binding, [3H]-prazosin, α1b
T1 construct: expressed in transfected cells; host or cells: mouse fibroblasts
T1 sequence (P18841 1-515): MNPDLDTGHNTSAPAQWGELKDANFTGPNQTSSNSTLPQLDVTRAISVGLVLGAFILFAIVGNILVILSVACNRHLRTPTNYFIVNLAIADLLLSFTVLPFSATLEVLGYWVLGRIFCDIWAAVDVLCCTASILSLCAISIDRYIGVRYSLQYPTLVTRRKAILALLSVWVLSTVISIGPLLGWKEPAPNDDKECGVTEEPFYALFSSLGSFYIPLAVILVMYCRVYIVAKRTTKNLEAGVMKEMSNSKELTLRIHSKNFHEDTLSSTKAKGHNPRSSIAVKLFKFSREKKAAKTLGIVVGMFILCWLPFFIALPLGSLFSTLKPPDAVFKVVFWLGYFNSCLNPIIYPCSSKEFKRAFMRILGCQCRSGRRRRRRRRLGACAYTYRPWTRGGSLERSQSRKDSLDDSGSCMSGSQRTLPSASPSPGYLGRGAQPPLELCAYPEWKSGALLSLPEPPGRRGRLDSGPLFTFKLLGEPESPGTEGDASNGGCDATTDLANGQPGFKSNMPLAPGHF
Outline: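 [3H]-prazosin radioligand displacement; α1A from rat submaxillary gland tissue, α1b hamster and α1d rat receptors each expressed in mouse fibroblasts.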

[2] = molecular target: T2, α1d (rat receptor expressed in mouse fibroblasts) (Rattus norvegicus, UniProt P23944); assay: Radioligand binding, [3H]-prazosin, α1d
T2 construct: expressed in transfected cells; host or cells: mouse fibroblasts
T2 sequence (P23944 1-561): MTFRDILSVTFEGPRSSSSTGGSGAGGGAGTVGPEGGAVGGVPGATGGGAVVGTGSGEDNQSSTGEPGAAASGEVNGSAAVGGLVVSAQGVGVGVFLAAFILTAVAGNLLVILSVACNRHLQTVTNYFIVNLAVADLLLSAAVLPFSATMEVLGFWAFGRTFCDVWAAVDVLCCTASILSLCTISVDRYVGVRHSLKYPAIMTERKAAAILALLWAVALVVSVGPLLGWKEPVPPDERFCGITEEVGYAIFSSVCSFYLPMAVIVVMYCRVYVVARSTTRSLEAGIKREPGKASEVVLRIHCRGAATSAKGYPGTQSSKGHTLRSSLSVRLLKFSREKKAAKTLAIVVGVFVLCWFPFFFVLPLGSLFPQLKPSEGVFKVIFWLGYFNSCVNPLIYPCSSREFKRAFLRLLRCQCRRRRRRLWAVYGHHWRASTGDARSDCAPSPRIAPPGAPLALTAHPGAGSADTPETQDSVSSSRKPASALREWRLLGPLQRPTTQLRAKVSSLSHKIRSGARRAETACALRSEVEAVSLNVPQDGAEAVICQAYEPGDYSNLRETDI
Method: (§1) For purposes of discussing a, adrenoceptor subtypes, the IUPHAR convention of using lower case letters to define molecular clones and upper case letters to indicate pharmacologically defined adrenoceptors has been followed. Compounds of formula I were evaluated in radioligand binding assays specific for α1A (rat submaxillary gland), α1b (hamster receptor expressed in mouse fibroblasts) and α1d (rat receptor expressed in mouse fibroblasts) using [^3H]-prazosin as the radioligand as described in Knepper, et al. J. Pharm.

α1A (rabbit urethra) = molecular target: T3, α1A (rabbit urethra) (Oryctolagus cuniculus, UniProt O02824); assay: Agonist tissue response, contraction of rabbit urethra; type: biochemical; conditions: values without asterisk, read-out: Agonist Tissue Response (pD2) α1A (rab ureth) (converted)
T3 construct: tested for α1A functional activity using rabbit urethra; from tissue; host or cells: rabbit urethra (female New Zealand white rabbits)
T3 sequence (O02824 1-466): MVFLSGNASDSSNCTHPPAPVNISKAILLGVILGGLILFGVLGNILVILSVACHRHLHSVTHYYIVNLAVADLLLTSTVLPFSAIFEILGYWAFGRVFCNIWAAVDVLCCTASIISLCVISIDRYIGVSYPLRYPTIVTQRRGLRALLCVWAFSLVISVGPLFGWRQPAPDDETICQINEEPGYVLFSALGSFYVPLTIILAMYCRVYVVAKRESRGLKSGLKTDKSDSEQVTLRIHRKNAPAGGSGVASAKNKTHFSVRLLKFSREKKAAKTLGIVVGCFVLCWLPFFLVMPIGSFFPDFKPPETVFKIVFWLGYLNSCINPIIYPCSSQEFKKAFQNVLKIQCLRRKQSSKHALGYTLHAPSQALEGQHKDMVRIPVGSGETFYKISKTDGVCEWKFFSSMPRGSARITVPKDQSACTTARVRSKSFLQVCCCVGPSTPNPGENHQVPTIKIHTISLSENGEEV
Method: Most of the compounds were tested for α1A functional activity using rabbit urethra as follows. Female New Zealand white rabbits (2.0-3.5 Kg) were sedated with CO2 and decapitated. […] Subsequent experimental conditions were as described above for the other tissues. Agonist concentration response curves were cumulative except for the vas deferens assay in which the transient response made such measurements impractical.

[3] = molecular target: T4, α1A (rat submaxillary gland) (Rattus norvegicus, UniProt P43140); assay: Radioligand binding, [3H]-prazosin, α1A
T4 construct: α1A (rat submaxillary gland); from tissue; host or cells: rat submaxillary gland
T4 sequence (P43140 1-466): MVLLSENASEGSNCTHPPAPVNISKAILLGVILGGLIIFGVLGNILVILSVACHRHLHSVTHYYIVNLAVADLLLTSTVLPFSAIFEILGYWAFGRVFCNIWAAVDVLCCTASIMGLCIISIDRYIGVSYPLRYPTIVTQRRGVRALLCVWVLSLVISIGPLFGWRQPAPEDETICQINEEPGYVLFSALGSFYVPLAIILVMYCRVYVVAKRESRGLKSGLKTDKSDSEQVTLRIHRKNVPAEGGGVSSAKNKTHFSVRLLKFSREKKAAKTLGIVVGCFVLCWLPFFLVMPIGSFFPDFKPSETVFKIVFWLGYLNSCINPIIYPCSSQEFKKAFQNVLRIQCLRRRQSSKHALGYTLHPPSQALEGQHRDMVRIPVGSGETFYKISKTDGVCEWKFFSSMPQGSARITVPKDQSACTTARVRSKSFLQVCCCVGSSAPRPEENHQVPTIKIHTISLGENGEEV
Method: as §1

anesthetized dogs [4] = assay: Intraurethral pressure (IUP) in anesthetized dogs; type: in vivo, dog; conditions: for ED (5 mm Hg): Canis lupus familiaris, iv dose causing a maximum increase in IUP of 5 mm Hg, anesthetized female Beagle dogs, read-out: Mean IUP ED5; for Mean Selectivity Ratio MAP ED20/IUP ED5: anesthetized dogs, iv
Excerpt: (§2) Female Beagle dogs (Marshall Farms, North Rose, N.Y.) greater that 2 years of age and weighing between 12 and 15 kg were used in these studies. At least 2 weeks prior to any agonist dosing, dogs were instrumented for the chronic measurement of arterial blood pressure by implanting a telemetry transducer/transmitter (TA11PA-C40, Data Sciences International, St. Paul, Minn.) into a carotid artery.
(§3) On the test day, dogs fasted since the previous afternoon were pre-anesthetized with thiopental sodium 15 mg/kg i.v. (Pentothal™, Abbott) and intubated. Anesthesia was maintained by allowing the dog to spontaneously breathe a mixture of isoflurane (2.5 to 3 volume %) and oxygen delivered by a Narkomed Standard anesthesia system (North American Drager, Telford, Pa.). An Abbocath-T™ i.v. catheter (18-G, Abbott) was inserted into the cephalic vein for the administration of agonists. A telemetry receiver (RA1310, DataSciences) was placed under the head of each dog and was interfaced to a computerized data acquisition system (Modular Instruments Inc.(MI2), Malvern, Pa.) which allowed for the continuous calibrated recording of arterial blood pressure which was electronically filtered to determine its mean value (MAP).
Dogs with chronic telemetry implants anesthetized as described above were placed in dorsal recumbency and a balloon catheter was inserted into the urethral orifice and advanced approximately 15 cm until the tip was well inside the bladder. The balloon was then inflated with 1 ml of room air and the catheter slowly withdrawn until resistance (corresponding to the bladder neck) was evident. The balloon was then deflated and the catheter withdrawn additional 2 cm. The balloon was then reinflated and its catheter port connected to a Gould Statham P23Dd pressure transducer interfaced to a computerized data acquisition system (Modular Instruments, Inc., Malvern, Pa.) for the measurement of the intraurethral pressure. Increasing iv doses of test agonists were administered and the maximum effect of each dose on IUP was recorded. The effect of each dose was allowed to return to baseline before the next dose was given.
(§4) From the resulting dose response curve, an ED5 value, for the dose causing a maximum increase in IUP of 5 mm Hg, could be estimated. An ED20 value for the dose causing a maximum increase in MAP of 20 mm Hg could also be estimated. A selectivity ratio of MAP ED20 vs. IUP ED, was calculated.

anesthetized dogs [5] = assay: Mean arterial pressure (MAP) in anesthetized dogs; type: in vivo, dog; conditions: iv dose causing a maximum increase in MAP of 20 mm Hg, anesthetized female Beagle dogs
Excerpt: as §2, §3, §4

[6] = hamster receptor expressed in mouse fibroblasts, [3H]-prazosin, read-out: Radioligand Binding Ki α1b (Hamster)
[7] = rat receptor expressed in mouse fibroblasts, [3H]-prazosin, read-out: Radioligand Binding Ki α1d (Rat)

Row | SMILES | Ki [1, 6] [µM] | Ki [2, 7] [µM] | EC50 (α1A (rabbit urethra)) [µM] | Ki [3] [µM] | ED (5 mm Hg) (anesthetized dogs [4]) [µmol/kg] | Mean MAP ED20 (anesthetized dogs [5]) [nmol/kg] | Ki [1] [µM] | Ki [2] [µM] | Mean Selectivity Ratio MAP ED20/IUP ED5 (anesthetized dogs [4]) | melting point [°C]
1 | COCCN(CCOC)C(=O)Nc1cccc2c1CCCC2c1c[nH]cn1 (stereo not shown) [Example 116, N′-[5-(1H-imidazol-4-yl)-5,6,7,8-tetrahydro-1-naphthalenyl]-N,N-bis(2-methoxyethyl)urea] | 10 | 10 | 9.33 | 2.98 |  |  |  |  |  | 
2 | O=S(=O)(Cc1ccccc1)Nc1cccc2c1CCCC2c1cnc[nH]1 (stereo not shown) [Example 67, N-[5-(1H-imidazol-5-yl)-5,6,7,8-tetrahydro-1-naphthalenyl](phenyl)methanesulfonamide] | 2.39 | 3.74 | 107 | 0.901 |  |  |  |  |  | 
3 | O=S(=O)(C=Cc1ccccc1)Nc1cccc2c1CCCC2c1cnc[nH]1 (stereo not shown) [Example 70, N-[5-(1H-imidazol-5-yl)-5,6,7,8-tetrahydro-1-naphthalenyl]-2-phenyl-1-ethenesulfonamide] | 0.387 | 0.353 | 81.3 | 0.43 |  |  |  |  |  | 
4 | C=C(c1cccc(NS(C)(=O)=O)c1)c1c[nH]cn1 [Example 92, N-{3-[1-(1H-imidazol-4-yl)vinyl]phenyl}methanesulfonamide] | 10 | 1.98 | 3.24 | 0.689 | 0.397 | 652.06 |  |  |  | 
5 | O=C(Nc1cccc2c1CCCC2c1c[nH]cn1)OCC(Cl)(Cl)Cl (stereo not shown) [Example 121, 2,2,2-trichloroethyl 5-(1H-imidazol-4-yl)-5,6,7,8-tetrahydro-1-naphthalenylcarbamate] |  |  | 3.72 | 0.229 |  |  | 1.85 | 0.963 |  | 
6 | O=C(Nc1cccc2c1CCCC2c1c[nH]cn1)N1CCOCC1 (stereo not shown) [Example 117, N-[5-(1H-imidazol-4-yl)-5,6,7,8-tetrahydro-1-naphthalenyl]-4-morpholinecarboxamide] |  |  | 5.37 | 1.1 | 0.873 | 645 | 10 | 10 | 0.75 | 
7 | CC(C)[C@H]1CC[C@H](C)C[C@@H]1OC(=O)Nc1cccc2c1CCCC2c1c[nH]cn1 (stereo partly drawn) [Example 123, (1S,2R,5S)-2-isopropyl-5-methylcyclohexyl 5-(1H-imidazol-4-yl)-5,6,7,8-tetrahydro-1-naphthalenylcarbamate] | 1.36 | 0.692 | 6.17 | 1.28 |  |  |  |  |  | 
8 | CS(=O)(=O)Nc1cc(F)cc2c1OCCC2c1c[nH]cn1.O=C(O)/C=C\C(=O)O (stereo not shown) [Example 90, N-[6-fluoro-4-(1H-imidazol-4-yl)-3,4-dihydro-2H-chromen-8-yl]methanesulfonamide Maleate] | 10 | 10 | 0.49 | 0.237 |  |  |  |  |  | 187 to 190
9 | CCCN(CCC)C(=O)Nc1cccc2c1CCCC2c1c[nH]cn1 (stereo not shown) [Example 112, N′-[5-(1H-imidazol-4-yl)-5,6,7,8-tetrahydro-1-naphthalenyl]-N,N-dipropylurea] | 10 | 10 | 7.94 | 1.24 |  |  |  |  |  | 
10 | O=C(Nc1cccc2c1CCCC2c1c[nH]cn1)N1CCCCC1 (stereo not shown) [Example 114, N-[5-(1H-imidazol-4-yl)-5,6,7,8-tetrahydro-1-naphthalenyl]-1-piperidinecarboxamide] | 10 | 5.62 | 9.12 | 1.05 | 1.68 | 1074.07 |  |  | 0.97 | 
11 | CCN(C(=O)Nc1cccc2c1CCCC2c1c[nH]cn1)C1CCCCC1 (stereo not shown) [Example 113, N-cyclohexyl-N-ethyl-N′-[5-(1H-imidazol-4-yl)-5,6,7,8-tetrahydro-1-naphthalenyl]urea] | 10 | 2.11 | 3.98 | 0.536 |  | 733.7 |  |  |  | 
12 | CC1CC(C)CN(C(=O)Nc2cccc3c2CCCC3c2c[nH]cn2)C1 (stereo not shown) [Example 115, N-[5-(1H-imidazol-4-yl)-5,6,7,8-tetrahydro-1-naphthalenyl]-3,5-dimethyl-1-piperidinecarboxamide] | 10 | 10 | 5.5 | 1.16 | 0.5 | 500 |  |  | 1.05 | 
